In patent publication US9580426B2, “Compounds that expand hematopoietic stem cells” (Novartis AG, priority 2008, dated 2017):

Tests used:
mPB CD34+ HSCs = experiment: Cobblestone area-forming cell (CAFC) assay; assay type: cell-based, human; conditions: 1 micromolar; mPB CD34+ HSCs after 5 days of culture
Description: Cobblestone area-forming cell (CAFC) assays: The FBMD-1 stromal cells are maintained in 25-cm^2 flasks and are trypsinized after ⅓ confluence. Since this non-transformed line ages, and therefore gradually loses its potential to support CAFC growth at late stages, all feeders are used below passage 20. For supporting CAFC growth in 96-well plates, 1×10^3 stromal cells are seeded per well. The cultures are maintained in Iscove's medium supplemented with 10% fetal calf serum (FCS), 2.5% horse serum (HS), 1% L-glutamine, 1% penicillin-streptomycin, and 1×10^−5 M hydrocortisone at 37° C. in a humidified atmosphere of 5% CO2 in air. After stromal layers reach confluency, they are inoculated with CD34^+ HSCs that have been cultured for 5 days with vehicle or a compound of the invention. MNCs are added at 8 serial 1:3 dilutions (starting at 25,000 cells/well), with 10 wells for each cell dose. The dilutions with wells with at least one phase-dark hematopoietic clone (cobblestone area) of at least five cells beneath the stromal layer are determined at week 4. […]

mPB and CB derived HSCs = experiment: Transplantation of cultured human CD34+ cells into NOD/SCID mice (engraftment); assay type: in vivo, human cells in NOD/SCID mice; conditions: HSCs cultured at 1 micromolar, mPB 4 days, CB 21 days
Description: Transplantation of human CD34^+ cells into NOD.CB 17-Prkdc^scid mice (NOD/SCID): To assess the in vivo repopulating capacity of CD34^+ cells and their cultured progeny, uncultured CD34^+ or the progenies of cultured CD34^+ cells after 4 days (mPB) or 21 days (CB) with vehicle or a test compound were injected intravenously via the retro-orbital route into sub-lethally irradiated (3.0 Gy) 8- to 10-week-old NOD/SCID (for mPB HSC experiments) or NOD/SCIDgc−/− (for CB HSC experiments) mice. To monitor engraftment blood was drawn weekly via the retro-orbital and treated with erythrocyte lysis solution (Qiagen, Valencia, Calif.) to remove red blood cells, washed with staining media, and analyzed by flow Cytometry. Engraftment was measured by detection of anti-human CD45^+ cells in the blood. The mice are sacrificed at 10 weeks post-transplantation; BM is collected from both femurs and tibiae. BM cells are washed in staining media and stained with anti-human antibodies. Following incubation, the suspension is treated with erythrocyte lysis solution (Qiagen, Valencia, Calif.) to remove red blood cells, washed with staining media, and analyzed by flow Cytometry, as described earlier.

AHR = target: T1, AHR (Rattus norvegicus, UniProt P41738); experiment: Dioxin induced AHR dependent transcription, rat cells; assay type: cell-based
T1 construct: had no activity on rat cells; endogenous in cells; host or cells: unnamed rat cells
T1 sequence (P41738 10-853): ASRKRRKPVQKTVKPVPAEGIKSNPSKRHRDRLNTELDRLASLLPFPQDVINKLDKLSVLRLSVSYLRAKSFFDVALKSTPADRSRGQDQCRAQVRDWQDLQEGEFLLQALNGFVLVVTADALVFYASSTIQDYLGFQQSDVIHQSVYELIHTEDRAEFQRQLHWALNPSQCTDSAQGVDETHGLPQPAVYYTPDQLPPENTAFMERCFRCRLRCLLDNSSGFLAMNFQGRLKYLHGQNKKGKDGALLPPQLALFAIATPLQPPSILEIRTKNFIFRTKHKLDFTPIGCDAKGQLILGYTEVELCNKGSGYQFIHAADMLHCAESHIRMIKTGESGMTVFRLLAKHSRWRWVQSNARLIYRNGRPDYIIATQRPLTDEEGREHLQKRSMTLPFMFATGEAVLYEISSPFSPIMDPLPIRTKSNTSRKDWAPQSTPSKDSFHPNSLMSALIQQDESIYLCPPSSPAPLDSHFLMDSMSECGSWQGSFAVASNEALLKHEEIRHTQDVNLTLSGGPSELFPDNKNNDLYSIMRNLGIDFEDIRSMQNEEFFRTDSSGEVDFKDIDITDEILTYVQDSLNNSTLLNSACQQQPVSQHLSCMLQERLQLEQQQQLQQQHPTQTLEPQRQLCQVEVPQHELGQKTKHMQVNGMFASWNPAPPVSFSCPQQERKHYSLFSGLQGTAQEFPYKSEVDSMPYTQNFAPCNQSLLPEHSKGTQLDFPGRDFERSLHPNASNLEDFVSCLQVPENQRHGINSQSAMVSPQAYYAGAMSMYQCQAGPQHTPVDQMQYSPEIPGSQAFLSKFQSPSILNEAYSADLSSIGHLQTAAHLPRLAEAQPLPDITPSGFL
Description: Further, the ability of Example 1 to block 2,3,7,8-tetrachlorodibenzo-p-dioxin (TCDD, dioxin)-mediated CYP1B1 mRNA expression by qPCR in mPB-derived CD34^+ cells was determined. Treatment with TCDD (3 nM) caused a 4.5-fold increase in the level of CYP1B1 mRNA compared with the vehicle control (0.01% toluene). […] To determine the effects of Example 1 in AHR transcription the ability of Example 1 to inhibit a dioxin-induced AHR dependent luciferase reporter gene assay was tested.

agonist activity (AHR dependent transcription) (AHR): only weak agonist activity
inhibition of dioxin induced transcription (AHR): no activity
SMILES: CC(C)n1cnc2c(NCCc3ccc(O)cc3)nc(-c3csc4ccccc34)nc21 [Example 1, 4-(2-(2-(benzo[b]thiophen-3-yl)-9-isopropyl-9H-purin-6-ylamino)ethyl)phenol]
increase in the number of cobblestone area forming cells compared with DMSO control (mPB CD34+ HSCs): greater than 2 fold
percentage of human cells 10 weeks after engraftment (mPB and CB derived HSCs): statistically significant increase
